Where two headings read alike, the source gives them in different places.
What was measured:
[1] = system: MCF7-Y537S human breast cancer cell line xenograft; conditions: experiment 1, compound (1) 20 mg/kg BID, alpelisib 25 mg/kg QD; for Tumor volume changes from baseline, Median: PO; for Median % of regressions on day 22 / ΔT/ΔC in % at day 22 / Regressions Complete / Regressions Partial: PO days 0 to 22; for Regressions Complete / Regressions Partial: animals/group; for Anti-tumor effect on tumor growth (in words) / Biological Interpretation: day 22
Method: In the present study, the anti-tumor efficacy of 6-(2,4-dichlorophenyl)-5-[4-[(3S)-1-(3-fluoropropyl)pyrrolidin-3-yl]oxyphenyl]-8,9-dihydro-7H-benzo[7]annulene-2-carboxylic acid (“compound (1)”), combined with alpha-specific phosphoinositide 3-kinase (PI3K) inhibitor alpelisib, was investigated after 22 day treatment against a subcutaneous MCF7-Y537S human breast cancer cell line xenograft in female nude mice.
The treated groups included compound (1) at 20 mg/kg alone, alpelisib at 25 mg/kg alone, and the combination of compound (1) and alpelisib at the same dose and regime.
Compound (1) was orally dosed twice a day (BID) and alpelisib was orally dosed once a day (QD) for 22 days. Anti-tumor efficacy was evaluated by tumor volume measurement.
Female BALB/c nude mice were obtained from Shanghai Sino-British SIPPR/BK Laboratory Animal Co., LTD (Shanghai, CHINA). Animals were allowed to acclimate for at least four days before the study enrollment. Mice were 6 to 8 weeks old and weighed between 18 and 24 grams at the beginning of the treatments. These animals were housed under conditions outlined in the guidelines approved by the Institutional Animal Care and Use Committee (IACUC) of WuXi AppTec following the guidance of the Association for Assessment and Accreditation of Laboratory Animal Care (AAALAC).
Parental MCF7 cells were obtained from the American Type Culture Collection (ATCC® HTB-22™). MCF7-Y537S (ESR1) cell line was MCF7 cells expressing the ER.Y537S variant that was generated by Sanofi Biology Discovery Group. Y537S mutation was introduced in ESR1 construct (GenBank NM_000125.3) by site directed mutagenesis (Toy W. et al., Cancer Discovery, 2017, 7, 277-287). The construct was transfected in MCF7 cells which were selected for their growth in absence of estradiol. MCF-Y537S is an ESR1 mutation that confers estrogen-independent activity to ERα (Estrogen Receptor alpha) and contributes to endocrine resistant disease (Robinson D. R. et al., Nat Genet., 2013, 45 (12), 1446-1451). The cells were grown in Eagle's Minimum Essential Medium (EMEM) supplemented with 10% fetal bovine serum (FBS), human Insulin, in 5% CO2 at 37° C. The cells were harvested in 0.25% Trypsin EDTA and washed by Phosphate Buffered Saline (PBS) and re-suspended in PBS with 75% Matrigel. The cells (20×10^6 cells/per mouse) were subcutaneously (SC) implanted into the right flank of female nude mice.
When the MCF7-Y537S tumors were established, the tumors were reserved as tumor stocks for fragment implantation. The tumors were serially propagated through fragment tissue transplantation subcutaneously. The fragment tumor tissues were subcutaneously implanted into the right flank of female nude mice. 28 mice were assigned in this experiment.
Alpelisib (commercially available, marketed under the tradename PIQRAY®) was formulated in 100% of HPMC (hydroxypropyl-methylcellulose)/TWEEN80 0.5/0.1% in water. Compound (1) was prepared in 5% Solutol HS15 (purchased from Sigma) at pH 3.0.
Dose volume for compound (1) and alpelisib for oral administration: 10 ml/kg by oral gavage.
Doses: compound (1) at 20 mg/kg and alpelisib at 25 mg/kg in the above volume.
The animals required for experiment (plus extra) were pooled and implanted with MCF7-Y537S tumor fragment tissues. […] Treatments of compound (1) and alpelisib were initiated on day 0. Compound (1) was orally administered at 20 mg/kg BID (8 hours apart) and alpelisib was orally administered at 25 mg/kg QD, for 22 days. Animal body weight was assessed daily.
The dosages are expressed in mg/kg and based on daily body weight per animal. Vehicle treated animals were used as controls. Mice were checked daily for adverse clinical reactions. Individual mice were weighed daily until the end of the experiment.

[2] = system: MCF7-Y537S human breast cancer cell line xenograft; type: in vivo; conditions: experiment 2, compound (1) 10 mg/kg BID, alpelisib 25 mg/kg QD; for Tumor volume changes from baseline, Median: PO; for Median % of regressions on day 28 / ΔT/ΔC in % at day 28 / Regressions Complete / Regressions Partial: PO days 0 to 28; for Regressions Complete / Regressions Partial: animals/group; for Anti-tumor effect on tumor growth (in words) / Biological Interpretation: day 28

SMILES | Tumor volume changes from baseline, Median ([1]; Day 4) | Tumor volume changes from baseline, Median ([1]; Day 8) | Tumor volume changes from baseline, Median ([1]; Day 11) | Tumor volume changes from baseline, Median ([1]; Day 15) | Tumor volume changes from baseline, Median ([1]; Day 18) | Tumor volume changes from baseline, Median ([1]; Day 22) | Median % of regressions on day 22 [1] | ΔT/ΔC in % at day 22 [1] | Regressions Complete [1] | Regressions Partial [1] | Anti-tumor effect on tumor growth (in words) [1] | Biological Interpretation [1] | Tumor volume changes from baseline, Median ([2]; Day 3) | Tumor volume changes from baseline, Median ([2]; Day 7) | Tumor volume changes from baseline, Median ([2]; Day 10) | Tumor volume changes from baseline, Median ([2]; Day 14) | Tumor volume changes from baseline, Median ([2]; Day 17) | Tumor volume changes from baseline, Median ([2]; Day 21) | Tumor volume changes from baseline, Median ([2]; Day 24) | Tumor volume changes from baseline, Median ([2]; Day 28) | also measured
Cc1nc(NC(=O)N2CCC[C@H]2C(N)=O)sc1-c1ccnc(C(C)(C)C(F)(F)F)c1 [Alpelisib] | 68.0 mm^3 | 102.0 mm^3 | 163.0 mm^3 | 262.0 mm^3 | 315.0 mm^3 | 491.0 mm^3 | 0% | 46% | 0/7 | 0/7 | did not induce statistically significant anti-tumor efficacy | Inactive | 7.0 mm^3 | −9.0 mm^3 | −17.0 mm^3 | 44.0 mm^3 | 121.5 mm^3 | 211.0 mm^3 | 245.5 mm^3 | 299.5 mm^3 | Body weight loss ([2]; 28 days): no significant body weight loss; Tolerability ([2]; 28 days): well tolerated; Median % of regressions on day 28 [2]: 0%; ΔT/ΔC in % at day 28 [2]: 66%; Regressions Complete [2]: 0/8; Regressions Partial [2]: 0/8; Anti-tumor effect on tumor growth (in words) [2]: statistically significant anti-tumor efficacy; Biological Interpretation [2]: inactive
O=C(O)c1ccc2c(c1)CCCC(c1ccc(Cl)cc1Cl)=C2c1ccc(O[C@H]2CCN(CCCF)C2)cc1 [Compound (1), 6-(2,4-dichlorophenyl)-5-[4-[(3S)-1-(3-fluoropropyl)pyrrolidin-3-yl]oxyphenyl]-8,9-dihydro-7H-benzo[7]annulene-2-carboxylic acid] | 43.0 mm^3 | 121.0 mm^3 | 214.0 mm^3 | 360.0 mm^3 | 392.0 mm^3 | 501.0 mm^3 | 0% | 47% | 0/7 | 0/7 | no statistically significant anti-tumor effect | Inactive | 9.0 mm^3 | 36.0 mm^3 | 48.0 mm^3 | 62.5 mm^3 | 92.0 mm^3 | 167.5 mm^3 | 189.5 mm^3 | 166.5 mm^3 | Unscheduled death (Day of death) ([1]; PO for 22 days, deaths/animals): 0/7; Median % of regressions on day 28 [2]: 0%; ΔT/ΔC in % at day 28 [2]: 37%; Regressions Complete [2]: 0/8; Regressions Partial [2]: 0/8; Unscheduled death (Day of death) ([2]; PO for 28 days, deaths/animals): 0/8; Anti-tumor effect on tumor growth (in words) [2]: statistically significant anti-tumor effect; Biological Interpretation [2]: active

From patent US12427142B2, “Combination comprising alpelisib and 6-(2,4-dichlorophenyl)-5-[4-[(3S)-1-(3-fluoropropyl)pyrrolidin-3-yl[oxyphenyl]-8,9-dihydro-7H-benzo[7]annulene-2-carboxylic acid” (Sanofi, priority 2020, dated 2025)
